From ChEMBL document CHEMBL1201862, “PubChem BioAssay data set” (2004)
Active and inactive are the calls of the source.

Columns and labels:
[1] = target: T1, Small ubiquitin-related modifier 1 (Homo sapiens, UniProt P63165); assay: SUMO1 protein interaction blockers, potency – biochemical, fluorescence polarization, uHTS hits, dose response (AID 624382); type: functional; conditions: read-out: IC50_Mean
[2] = target: T1, Small ubiquitin-related modifier 1; assay: SUMO1 protein-protein binding blockers, potency – biochemical, FRET, dose response (AID 624383); type: functional; conditions: read-out: IC50_Mean
[3] = target: T2, Serine/threonine-protein phosphatase (Candida dubliniensis (strain CD36 / CBS 7987 / NCPF 3949 / NRRLY-17841) (Yeast), UniProt B9W6M3); assay: blockers of CaCl2-induced CDRE-lacZ signaling – S. cerevisiae, luminescence, secondary, dose response (AID 2388); type: functional, cell-based;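 note: yeast reporter cells carrying a calcineurin-responsive lacZ construct stimulated with calcium chloride; luminescent beta-galactosidase reporter signal in whole cells rather than isolated phosphatase activity; potency for inhibition where a drop in reporter signal means calcineurin blockade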
T2 sequence (B9W6M3 whole entry): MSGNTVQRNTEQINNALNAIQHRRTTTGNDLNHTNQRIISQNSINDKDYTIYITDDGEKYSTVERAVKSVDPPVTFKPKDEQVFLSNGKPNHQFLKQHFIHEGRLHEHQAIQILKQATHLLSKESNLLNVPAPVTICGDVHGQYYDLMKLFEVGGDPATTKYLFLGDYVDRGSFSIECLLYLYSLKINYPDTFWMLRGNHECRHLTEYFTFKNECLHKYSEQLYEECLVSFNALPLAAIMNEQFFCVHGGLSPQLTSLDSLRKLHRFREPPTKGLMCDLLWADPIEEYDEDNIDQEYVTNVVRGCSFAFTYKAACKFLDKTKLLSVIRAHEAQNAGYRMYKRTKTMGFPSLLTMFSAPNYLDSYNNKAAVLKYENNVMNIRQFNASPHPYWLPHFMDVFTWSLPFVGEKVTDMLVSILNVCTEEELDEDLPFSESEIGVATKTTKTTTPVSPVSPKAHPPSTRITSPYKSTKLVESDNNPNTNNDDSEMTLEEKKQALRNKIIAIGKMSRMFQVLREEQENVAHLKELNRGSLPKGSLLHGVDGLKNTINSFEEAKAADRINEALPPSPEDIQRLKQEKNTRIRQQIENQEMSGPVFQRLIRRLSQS

[4] = mammalian cell viability loss – Alamar Blue, dry powder, cytotoxicity control for antifungal single agent project, dose response (AID 602188); type: functional, cell-based
[5] = target: ATP-dependent molecular chaperone HSP82 (Candida albicans (strain WO-1) (Yeast), UniProt C4YTQ8); assay: steroid-induced GRE reporter decrease in yeast – S. cerevisiae, luminescence, Hsp90 inhibitor project, dose response (AID 2400); type: functional, cell-based;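 note: beta-galactosidase luminescence from glucocorticoid response element reporter as proxy for Hsp90 function; inhibitor potency where signal loss means Hsp90 inhibition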
ATP-dependent molecular chaperone HSP82, sequence (C4YTQ8 whole entry): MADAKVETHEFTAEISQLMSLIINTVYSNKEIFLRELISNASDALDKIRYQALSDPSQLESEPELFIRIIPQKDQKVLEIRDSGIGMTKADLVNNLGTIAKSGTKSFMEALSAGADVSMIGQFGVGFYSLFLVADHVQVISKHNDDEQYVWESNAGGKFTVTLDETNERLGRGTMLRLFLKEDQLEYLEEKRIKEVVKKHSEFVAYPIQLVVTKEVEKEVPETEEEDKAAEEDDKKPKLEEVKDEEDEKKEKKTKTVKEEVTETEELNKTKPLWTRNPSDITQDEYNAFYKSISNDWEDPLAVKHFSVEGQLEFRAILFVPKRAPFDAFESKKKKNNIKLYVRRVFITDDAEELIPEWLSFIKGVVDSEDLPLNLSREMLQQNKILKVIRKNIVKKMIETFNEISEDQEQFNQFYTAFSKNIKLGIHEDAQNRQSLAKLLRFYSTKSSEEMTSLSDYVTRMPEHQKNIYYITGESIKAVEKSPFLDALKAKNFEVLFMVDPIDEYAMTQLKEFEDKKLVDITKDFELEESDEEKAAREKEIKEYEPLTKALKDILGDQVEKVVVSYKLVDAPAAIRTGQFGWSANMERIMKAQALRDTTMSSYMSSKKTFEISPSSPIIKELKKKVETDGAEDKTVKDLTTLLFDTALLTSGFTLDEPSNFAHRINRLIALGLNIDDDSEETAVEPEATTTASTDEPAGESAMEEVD

[6] = Trypanosoma cruzi growth suppression in host cells – NIH3T3 host cells, beta-gal luminescence, confirmation (AID 2044); type: functional, cell-based;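 note: intracellular parasites grown in NIH/3T3 mouse fibroblasts as host cells; luminescent beta-galactosidase reporter signal from transgenic T. cruzi replicating inside host cells; inhibitors lower the luminescence signal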
cells [7] = type: functional, cell-based
INS1 = assay: INS-1E survival protection against cytokine death – cell-based, luminescence, retest, dose response (AID 449756); type: functional; conditions: Rattus norvegicus;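 note: cell death triggered by IL-1 beta plus TNF-alpha plus IFN-gamma mixture; protective hits raise ATP signal compared with cytokine alone wells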
Vero = assay: cells; type: functional; conditions: Chlorocebus sabaeus
[8] = NIH3T3 cell viability loss – ATP luminescence, mouse fibroblasts, counter-screen, dose response (AID 2010); type: functional, cell-based;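 note: cells exposed to compound for about 90 hours before reading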
[9] = NIH-3T3 fibroblast cytotoxicity, dose response, cytotoxicity control, cell-based, fluorescence, Alamar Blue, secondary assay (AID 2327); type: functional;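 note: NIH-3T3 mouse fibroblasts cultured with fluconazole at 8 µg/mL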
cells [10] = type: functional, cell-based; remark: listed apart in the source
[11] = fluconazole-exposed Candida albicans growth modulators – fluorescence, retest, confirmation (AID 2467); type: functional, cell-based
Streptococcus = assay: GAS UMAA2166 growth inhibition – luminescence, BacTiterGlo, counter-screen for streptokinase expression inhibitor project, dose response (AID 1915); type: functional, organism-based;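 note: potency for reduction of bacterial viability or growth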
[12] = target: Heat shock protein HSP 90-alpha (Homo sapiens, UniProt P07900); type: functional, organism-based
Streptokinase A = target: T3, Streptokinase A (Streptococcus pyogenes serotype M1, UniProt P10520); assay: viability-normalized secreted streptokinase activity reduction – plasminogen activation absorbance, OD405, dose response (AID 1914); type: functional, Streptococcus pyogenes M1 GAS;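 note: secreted streptokinase activity via plasminogen activation per viability signal from cell pellet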
T3 sequence (P10520 whole entry): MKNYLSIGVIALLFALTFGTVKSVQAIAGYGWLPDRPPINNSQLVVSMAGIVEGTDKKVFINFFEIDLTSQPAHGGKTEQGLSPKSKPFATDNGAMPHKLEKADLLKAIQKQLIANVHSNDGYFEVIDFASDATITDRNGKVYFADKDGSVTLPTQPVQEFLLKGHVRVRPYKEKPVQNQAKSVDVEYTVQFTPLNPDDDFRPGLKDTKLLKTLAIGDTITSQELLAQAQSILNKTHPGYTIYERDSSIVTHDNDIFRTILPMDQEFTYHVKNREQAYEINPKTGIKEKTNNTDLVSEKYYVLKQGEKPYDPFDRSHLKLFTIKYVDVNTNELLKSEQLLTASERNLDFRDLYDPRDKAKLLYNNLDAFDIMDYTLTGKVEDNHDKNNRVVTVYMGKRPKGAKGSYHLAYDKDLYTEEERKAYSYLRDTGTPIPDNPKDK

[13] = tested on: Streptococcus sp. 'group A'; assay: Streptococcus pyogenes SK(-)GAS viability under kanamycin – luminescence, BacTiterGlo, confirmation, counter-screen for streptokinase expression inhibitor project, dose response (AID 1900); type: functional, organism-based
Melanocortin receptor 4 = Melanocortin receptor 4 (Homo sapiens, UniProt P32245); type: functional, cell-based;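 note: Cell-based assay with luminescence read-out, confirmatory dose-response testing for agonist activity of biased ligands at MC4R; human U2OS cells with tagged receptor and beta-arrestin; potency of agonists that increase receptor coupling to beta-arrestin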
Melanocortin receptor 4, sequence (P32245 whole entry): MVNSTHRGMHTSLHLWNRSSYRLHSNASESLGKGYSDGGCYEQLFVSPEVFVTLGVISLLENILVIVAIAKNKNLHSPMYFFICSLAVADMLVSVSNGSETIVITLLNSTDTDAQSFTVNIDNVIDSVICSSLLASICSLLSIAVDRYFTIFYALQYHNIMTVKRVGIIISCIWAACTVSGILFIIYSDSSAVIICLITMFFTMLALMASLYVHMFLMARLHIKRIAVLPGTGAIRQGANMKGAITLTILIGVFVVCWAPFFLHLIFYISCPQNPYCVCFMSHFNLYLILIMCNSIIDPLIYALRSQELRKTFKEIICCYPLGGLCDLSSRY

[14] = Luminescence Cell-Based Dose Response HTS to Identify Activators of Luciferase Translation or Activity in H4 […] Cells. [Related pubchem assays: 1829 (Project Summary), 1814 (Primary HTS)]; type: functional
[15] = Luminescence Cell-Based Dose Confirmation HTS to Identify Activators of 5'UTR Stem-Loop Driven Alpha-Synuclein mRNA Translation in H4 Neuroglioblastoma Cells. [Related pubchem assays: 1829 (Project Summary), 1814 (Primary HTS)]; type: functional
H4 = assay: Luminescence Cell-Based Dose Response HTS to Identify Activators of 5'UTR Stem-Loop Driven Prion Protein mRNA Translation in H4 Neuroglioblastoma Cells. [Related pubchem assays: 1829 (Project Summary), 1814 (Primary HTS)]; type: functional; conditions: Homo sapiens
Protein Wnt-3a = Protein Wnt-3a (Mus musculus, UniProt P27467); assay: antagonism of Wnt3a pathway luciferase reporter – Wnt-LIGHT cells, luminescence, selectivity assay for Gli-SUFU antagonist project, dose response (AID 651570); type: functional; conditions: read-out: IC50_Mean;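 note: Wnt-LIGHT reporter cells stimulated with conditioned medium from Wnt3a-producing cells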
Protein Wnt-3a, sequence (P27467 whole entry): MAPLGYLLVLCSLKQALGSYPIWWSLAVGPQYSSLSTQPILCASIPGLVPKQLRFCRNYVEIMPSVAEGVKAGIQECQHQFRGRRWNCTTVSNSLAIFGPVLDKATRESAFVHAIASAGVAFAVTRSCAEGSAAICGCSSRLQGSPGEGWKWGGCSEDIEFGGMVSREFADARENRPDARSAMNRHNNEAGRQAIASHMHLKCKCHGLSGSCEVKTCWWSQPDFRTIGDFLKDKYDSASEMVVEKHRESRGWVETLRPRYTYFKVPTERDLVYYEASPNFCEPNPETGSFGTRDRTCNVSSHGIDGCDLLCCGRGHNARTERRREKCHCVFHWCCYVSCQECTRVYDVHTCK

[16] = target: SWI/SNF-related matrix-associated actin-dependent regulator of chromatin subfamily A member 2 (Homo sapiens, UniProt P51531); assay: Luminescence-based cell-based high throughput dose response assay to identify activators of the function of SWI/SNF related, matrix associated, actin dependent regulator of chromatin, subfamily a, member 2 (SMARCA2, BRM).; type: functional
[17] = Counterscreen for activators of the function of SWI/SNF related, matrix associated, actin dependent regulator of chromatin, subfamily a, member 2 (SMARCA2, BRM): Luminescence-based cell-based high throughput dose response assay to identify non-selective compounds using the VP16 reporter assay.; type: functional
[18] = target: T4, Long-chain-fatty-acid--AMP ligase FadD28 (Mycobacterium tuberculosis, UniProt P9WQ59); assay: Fluorescence polarization aasay to screen for inhibitors that compete for the binding of FadD28 to a bisubstrate Measured in Biochemical System Using Plate Reader - 2147-01_Inhibitor_Dose_CherryPick_Activity.; type: functional, Mycobacterium tuberculosis H37Rv
T4 sequence (P9WQ59 whole entry): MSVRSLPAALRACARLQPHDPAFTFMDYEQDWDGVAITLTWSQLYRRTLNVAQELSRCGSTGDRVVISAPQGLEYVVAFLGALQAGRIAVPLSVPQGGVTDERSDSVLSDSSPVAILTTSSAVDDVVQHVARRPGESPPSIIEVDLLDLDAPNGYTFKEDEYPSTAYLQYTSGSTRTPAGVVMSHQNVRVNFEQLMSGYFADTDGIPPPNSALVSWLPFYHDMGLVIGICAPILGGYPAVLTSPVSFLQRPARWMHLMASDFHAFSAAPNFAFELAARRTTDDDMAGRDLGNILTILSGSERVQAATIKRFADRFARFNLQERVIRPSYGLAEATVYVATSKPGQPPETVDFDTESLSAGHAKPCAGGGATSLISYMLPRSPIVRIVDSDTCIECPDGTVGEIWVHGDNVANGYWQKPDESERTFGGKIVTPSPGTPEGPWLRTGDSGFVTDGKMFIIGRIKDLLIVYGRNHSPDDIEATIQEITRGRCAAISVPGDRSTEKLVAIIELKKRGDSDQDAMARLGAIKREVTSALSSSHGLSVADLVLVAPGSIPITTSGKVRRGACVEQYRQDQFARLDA

[19] = target: T5, COUP transcription factor 2 (Homo sapiens, UniProt P24468); assay: Luminescence-based cell-based high throughput dose response assay to identify inhibitors of COUP-TFII (NR2F2).; type: functional;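 note: HEK293 cells transiently cotransfected with COUP-TFII expression vector and reporter; luciferase reporter luminescence driven by COUP-TFII from the pX2-168 reporter plasmid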
T5 sequence (P24468 whole entry): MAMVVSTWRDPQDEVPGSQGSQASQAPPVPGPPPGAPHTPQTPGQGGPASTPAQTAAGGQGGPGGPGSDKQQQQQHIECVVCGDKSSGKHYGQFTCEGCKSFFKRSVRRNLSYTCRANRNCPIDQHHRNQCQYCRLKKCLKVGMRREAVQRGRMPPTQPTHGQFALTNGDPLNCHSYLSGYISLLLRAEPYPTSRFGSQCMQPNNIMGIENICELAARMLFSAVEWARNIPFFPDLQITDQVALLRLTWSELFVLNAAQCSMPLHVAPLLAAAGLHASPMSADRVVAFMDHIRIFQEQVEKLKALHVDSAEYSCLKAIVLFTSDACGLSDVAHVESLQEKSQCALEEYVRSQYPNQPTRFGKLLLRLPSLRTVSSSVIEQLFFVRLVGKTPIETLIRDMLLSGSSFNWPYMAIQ

[20] = activation of miR-122 Renilla sensor silencing – cell-based, Huh7 psiCHECK-miR122, Renilla luciferase, cherry-picked, dose response (AID 651956); type: functional;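 note: huh7 hepatoma cells stably carrying a psiCHECK-2 miR-122 sensor plasmid; renilla luciferase signal reporting endogenous miR-122 activity after 48 h compound exposure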
[21] = target: Glucose-6-phosphate 1-dehydrogenase (Homo sapiens, UniProt P11413); assay: inhibition of Homo sapiens G6PD, dose series – biochemical, fluorescence, selectivity assay for P. falciparum G6PD inhibitor project, dose response (AID 504792); type: functional
Glucose-6-phosphate 1-dehydrogenase, sequence (P11413 whole entry): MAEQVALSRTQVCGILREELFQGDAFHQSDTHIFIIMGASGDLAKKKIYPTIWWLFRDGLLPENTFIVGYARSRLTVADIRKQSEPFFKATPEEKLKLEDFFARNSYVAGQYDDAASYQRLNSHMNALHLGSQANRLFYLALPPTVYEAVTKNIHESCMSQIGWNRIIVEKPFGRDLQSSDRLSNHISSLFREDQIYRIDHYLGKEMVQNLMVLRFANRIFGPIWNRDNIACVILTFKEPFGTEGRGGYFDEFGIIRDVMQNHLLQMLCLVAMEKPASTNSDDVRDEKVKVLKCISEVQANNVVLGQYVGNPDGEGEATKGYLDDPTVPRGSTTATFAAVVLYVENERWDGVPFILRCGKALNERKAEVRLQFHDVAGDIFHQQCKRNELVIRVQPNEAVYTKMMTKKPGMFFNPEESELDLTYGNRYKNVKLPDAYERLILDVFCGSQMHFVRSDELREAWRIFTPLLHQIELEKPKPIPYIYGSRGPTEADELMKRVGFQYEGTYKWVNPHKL

[22] = target: Voltage-dependent T-type calcium channel subunit alpha-1H (Homo sapiens, UniProt O95180); type: functional;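 note: channel activity triggered by adding a high calcium stimulation buffer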
Voltage-dependent T-type calcium channel subunit alpha-1H, sequence (O95180 whole entry): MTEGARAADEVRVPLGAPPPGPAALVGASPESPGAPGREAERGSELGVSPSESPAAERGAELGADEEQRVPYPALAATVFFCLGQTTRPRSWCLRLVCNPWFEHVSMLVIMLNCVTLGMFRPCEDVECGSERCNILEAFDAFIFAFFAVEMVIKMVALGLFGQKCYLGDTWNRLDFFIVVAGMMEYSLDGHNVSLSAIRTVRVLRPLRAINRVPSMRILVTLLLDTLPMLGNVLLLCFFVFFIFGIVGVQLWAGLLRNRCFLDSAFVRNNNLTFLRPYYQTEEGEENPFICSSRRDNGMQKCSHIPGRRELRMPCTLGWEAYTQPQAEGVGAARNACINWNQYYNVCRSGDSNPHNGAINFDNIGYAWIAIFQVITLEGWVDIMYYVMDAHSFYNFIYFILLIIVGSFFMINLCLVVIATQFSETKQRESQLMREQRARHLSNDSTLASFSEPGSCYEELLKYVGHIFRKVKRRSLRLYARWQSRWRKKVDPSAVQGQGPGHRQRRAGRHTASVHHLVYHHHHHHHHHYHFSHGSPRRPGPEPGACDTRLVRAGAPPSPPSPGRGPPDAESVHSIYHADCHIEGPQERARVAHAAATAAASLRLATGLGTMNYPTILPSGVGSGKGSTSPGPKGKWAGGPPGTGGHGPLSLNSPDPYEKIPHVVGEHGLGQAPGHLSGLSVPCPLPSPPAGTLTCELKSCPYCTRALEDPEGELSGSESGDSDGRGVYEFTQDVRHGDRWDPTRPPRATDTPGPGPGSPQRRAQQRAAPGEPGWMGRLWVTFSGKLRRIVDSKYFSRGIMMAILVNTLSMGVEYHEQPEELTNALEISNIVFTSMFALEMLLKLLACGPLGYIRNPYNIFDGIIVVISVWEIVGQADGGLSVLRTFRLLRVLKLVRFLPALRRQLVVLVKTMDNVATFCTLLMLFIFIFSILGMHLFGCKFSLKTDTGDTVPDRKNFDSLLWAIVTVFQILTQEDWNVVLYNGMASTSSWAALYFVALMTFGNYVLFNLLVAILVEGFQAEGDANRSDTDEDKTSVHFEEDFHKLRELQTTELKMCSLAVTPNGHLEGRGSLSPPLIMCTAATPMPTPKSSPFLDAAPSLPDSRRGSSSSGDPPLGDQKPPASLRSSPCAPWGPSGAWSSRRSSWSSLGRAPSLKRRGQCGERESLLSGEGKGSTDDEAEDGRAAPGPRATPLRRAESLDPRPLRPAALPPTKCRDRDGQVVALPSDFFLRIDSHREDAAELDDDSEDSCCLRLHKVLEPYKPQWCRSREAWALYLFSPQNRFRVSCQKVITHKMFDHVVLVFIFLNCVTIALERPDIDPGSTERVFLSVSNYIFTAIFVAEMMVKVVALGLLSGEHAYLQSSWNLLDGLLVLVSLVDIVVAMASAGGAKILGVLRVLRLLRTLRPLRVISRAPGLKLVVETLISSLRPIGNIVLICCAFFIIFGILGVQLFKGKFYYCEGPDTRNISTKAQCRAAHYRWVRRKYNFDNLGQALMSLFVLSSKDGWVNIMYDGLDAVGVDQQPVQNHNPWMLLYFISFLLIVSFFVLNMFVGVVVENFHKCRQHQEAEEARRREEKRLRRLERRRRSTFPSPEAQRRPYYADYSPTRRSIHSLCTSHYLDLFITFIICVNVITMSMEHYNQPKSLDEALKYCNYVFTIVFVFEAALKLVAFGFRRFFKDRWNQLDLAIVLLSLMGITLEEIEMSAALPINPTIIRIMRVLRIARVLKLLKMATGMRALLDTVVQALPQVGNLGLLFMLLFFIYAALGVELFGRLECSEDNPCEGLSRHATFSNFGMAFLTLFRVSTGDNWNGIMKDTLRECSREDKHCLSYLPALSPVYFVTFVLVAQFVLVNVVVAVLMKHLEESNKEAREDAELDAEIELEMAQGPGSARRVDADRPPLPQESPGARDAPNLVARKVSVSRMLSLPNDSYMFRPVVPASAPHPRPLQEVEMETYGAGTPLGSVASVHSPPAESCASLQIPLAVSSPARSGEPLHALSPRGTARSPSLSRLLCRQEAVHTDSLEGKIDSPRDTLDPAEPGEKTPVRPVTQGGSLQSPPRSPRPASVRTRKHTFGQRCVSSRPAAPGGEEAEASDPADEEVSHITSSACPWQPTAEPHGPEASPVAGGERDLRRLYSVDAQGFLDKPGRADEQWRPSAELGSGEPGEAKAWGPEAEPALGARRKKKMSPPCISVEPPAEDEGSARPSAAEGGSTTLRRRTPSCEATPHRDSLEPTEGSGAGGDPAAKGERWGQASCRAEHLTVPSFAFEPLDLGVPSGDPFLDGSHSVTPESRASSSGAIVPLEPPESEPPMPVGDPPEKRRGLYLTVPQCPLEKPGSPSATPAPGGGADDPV

H9c2 = assay: cells; type: functional, cell-based; conditions: Rattus norvegicus, H9c2, Myocardium;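 note: confirmatory concentration-response retest of ultra-high-throughput screening hits for modulation of myocardial damage; cell death induced by hydrogen peroxide oxidative stress; compound pretreatment for 60 min then peroxide exposure for 2 h; potency is for protecting the cells against peroxide damage rather than for killing them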
[23] = target: T6, Mitochondrial peptide methionine sulfoxide reductase (Bos taurus, UniProt P54149); type: functional;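 note: absorbance read-out, biochemical high-throughput dose-response screen for MsrA inhibitors, confirmatory; recombinant bovine MsrA coupled to E. coli TrxB with NADPH and selenocystamine; potency is for inhibitors of MsrA activity on DMSO substrate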
T6 sequence (P54149 whole entry): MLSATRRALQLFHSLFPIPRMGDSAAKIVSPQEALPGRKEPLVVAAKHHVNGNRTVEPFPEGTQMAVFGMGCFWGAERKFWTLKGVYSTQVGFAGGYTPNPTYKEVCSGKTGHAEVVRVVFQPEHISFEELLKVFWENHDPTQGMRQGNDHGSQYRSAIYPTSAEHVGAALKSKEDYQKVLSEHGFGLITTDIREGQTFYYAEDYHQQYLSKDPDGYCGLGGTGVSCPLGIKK

T1 sequence (P63165 whole entry): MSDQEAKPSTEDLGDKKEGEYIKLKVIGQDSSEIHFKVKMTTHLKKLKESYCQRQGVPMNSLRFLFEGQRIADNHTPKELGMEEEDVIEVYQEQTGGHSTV

Cn1cnnc1SCC(=O)Nc1ccc(OCc2ccccc2)cc1
IC50 [1]: > 66.6 µM (inactive)
IC50 [2]: 32 µM (inactive)

Cc1cc(C)n(-c2nc3ccccc3c(=O)n2OCC#N)n1
EC50 [3]: > 180 µM (inactive)
AC50 [4]: 0.881 µM (active)
EC50 [5]: > 150 µM (inactive)
EC50 [6]: 1.14 µM (active)
EC50 (cells [7]): 137 µM (active)
AC50 (INS1): 4.13 µM (active)
CC50 (Vero): 8.68 µM (active)
EC50 [8]: 4.32 µM (active)
EC50 [9]: 150 µM (active)
EC50 (cells [10]): 28.9 µM (active)
EC50 [11]: 0.727 µM (active)

O=C(NNc1nc2ccc(Cl)cc2s1)c1cc(-c2cccs2)nc2ccccc12
EC50 [3]: > 180 µM (inactive)
EC50 (Streptococcus): 5.79 µM (active)
EC50 [5]: 12.8 µM (active)
AC50 [12]: 2.18 µM (active)
EC50 [9]: 19.7 µM (active)
EC50 (Streptokinase A): > 150 µM (not active)
EC50 [13]: 0.472 µM (active)
EC50 [11]: 0.433 µM (active)

Cc1nnnn1/C(=C\c1ccccc1)C(=O)OCC(=O)Nc1ccc(Cl)cc1F
EC50 (Melanocortin receptor 4): > 89.2 µM (inactive)
EC50 [14]: > 60 µM (not active)
EC50 [15]: > 120 µM (not active)
EC50 (H4): 5.56 µM (active)

CCC(C(=O)NCCC(C)C)n1ccc2cc(S(=O)(=O)N3CCCCC3)ccc21 (configuration not stated)
IC50 (Protein Wnt-3a): 5.14 µM (active)

Cc1ccnc(Nc2nc3ccccc3s2)n1
EC50 [16]: > 91.2 µM (inactive)
EC50 [17]: > 91.2 µM (inactive)

CCc1cccc2c(C(=O)COC(=O)c3cccc(S(=O)(=O)N(C)C4CCCCC4)c3)c[nH]c12
AC50 [18]: 30.6 µM (active)

CC(=O)c1cn(CCOc2ccccc2C)c2ccccc12
IC50 [19]: 8.92 µM (active)
IC50 (Protein Wnt-3a): 3.66 µM (active)

Cc1cc(C)nc(NS(=O)(=O)c2ccc(NC(=S)NC(=O)C3CCCC3)cc2)n1
AC50 [20]: 11.1 µM (active)

Cc1cc(C)nc(NC(N)=Nc2ccccc2-c2ccccc2)n1
IC50 (Protein Wnt-3a): 16.9 µM (active)
IC50 [21]: > 80 µM (inactive)

O=C(Nc1nnc(-c2ccc3c(c2)CCCC3)o1)c1ccccc1
EC50 [3]: > 180 µM (inactive)
AC50 [4]: 4.89 µM (active)
EC50 [5]: 4.72 µM (active)
EC50 [22]: 3.25 µM (active)
CC50 (Vero): > 25 µM (active)
IC50 (H9c2): > 79 µM (inactive)
EC50 [9]: > 160 µM (inactive)
EC50 [11]: 0.229 µM (active)

COc1ccc2sc(-c3ccc(S(C)(=O)=O)cc3)c(C#Cc3cncn3C)c2c1
EC50 (Melanocortin receptor 4): > 89.2 µM (inactive)

Cc1ccc(C(=O)Nc2nnc(-c3ccccc3)o2)cc1C
AC50 [4]: 14.2 µM (active)

Nc1nc2ccccc2n1/N=C/c1ccc2c(c1)OCO2
IC50 [23]: 45.6 µM (inactive)

C/C(=N\Nc1ccc(C#N)cc1[N+](=O)[O-])c1ccc(O)cc1
IC50 [23]: 155 µM (inactive)

O=C(CCC(=O)Nc1ccc(F)cc1)N/N=C/c1c[nH]c2ccccc12
AC50 [18]: 49 µM (active)
